Experiments:
[1] = biological target: recombinant human NF-kappaB-inducing kinase (NIK/MAP3K14) (Homo sapiens (Human), UniProt Q99558); experiment: Inhibition of auto-phosphorylation of recombinant human NIK/MAP3K14 (AlphaScreen); assay type: biochemical; conditions: NIK auto-phosphorylation, 5 μM ATP, 1 nM NIK, 2 h at 25° C.; average of values
Summary of the method: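 GST-tagged NIK (1 nM) auto-phosphorylated with 5 μM ATP for 2 h at 25° C. in 50 mM Tris pH 7.5, 5 mM MgCl2, 1 mM EGTA, 1 mM DTT, 0.1 mM Na3VO4, 0.01% Tween 20 (0.7% DMSO). Detected by AlphaScreen via anti-phospho-IKK Ser176/180 antibody; IC50 from sigmoidal fit of % inhibition versus log concentration.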

[2] = system: p-IKKα levels in L363 (NIK translocated multiple myeloma) cells; experiment: Effect of compounds on p-IKKα levels in L363 cells (AlphaLISA SureFire Ultra); assay type: cell-based, human; conditions: Homo sapiens, L-363, 6 h, BAFF stimulated, MG132, 6 h, average of values, read-out: Assay 2 IC50
Summary of the method: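 Inhibition of p-IKKα (Ser176/180) read by AlphaLISA after 6 h, 37 °C compound exposure (11-point 1:3 series, 0.3% DMSO) of L363 cells pre-incubated overnight ± 250 ng/ml BAFF and plated ± BAFF ± 10 μM MG132. Normalised to BAFF/MG132/DMSO and unstimulated controls; IC50 by sigmoidal fitting, duplicates.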

Chain of recombinant human NF-kappaB-inducing kinase (NIK/MAP3K14) (Q99558 whole entry): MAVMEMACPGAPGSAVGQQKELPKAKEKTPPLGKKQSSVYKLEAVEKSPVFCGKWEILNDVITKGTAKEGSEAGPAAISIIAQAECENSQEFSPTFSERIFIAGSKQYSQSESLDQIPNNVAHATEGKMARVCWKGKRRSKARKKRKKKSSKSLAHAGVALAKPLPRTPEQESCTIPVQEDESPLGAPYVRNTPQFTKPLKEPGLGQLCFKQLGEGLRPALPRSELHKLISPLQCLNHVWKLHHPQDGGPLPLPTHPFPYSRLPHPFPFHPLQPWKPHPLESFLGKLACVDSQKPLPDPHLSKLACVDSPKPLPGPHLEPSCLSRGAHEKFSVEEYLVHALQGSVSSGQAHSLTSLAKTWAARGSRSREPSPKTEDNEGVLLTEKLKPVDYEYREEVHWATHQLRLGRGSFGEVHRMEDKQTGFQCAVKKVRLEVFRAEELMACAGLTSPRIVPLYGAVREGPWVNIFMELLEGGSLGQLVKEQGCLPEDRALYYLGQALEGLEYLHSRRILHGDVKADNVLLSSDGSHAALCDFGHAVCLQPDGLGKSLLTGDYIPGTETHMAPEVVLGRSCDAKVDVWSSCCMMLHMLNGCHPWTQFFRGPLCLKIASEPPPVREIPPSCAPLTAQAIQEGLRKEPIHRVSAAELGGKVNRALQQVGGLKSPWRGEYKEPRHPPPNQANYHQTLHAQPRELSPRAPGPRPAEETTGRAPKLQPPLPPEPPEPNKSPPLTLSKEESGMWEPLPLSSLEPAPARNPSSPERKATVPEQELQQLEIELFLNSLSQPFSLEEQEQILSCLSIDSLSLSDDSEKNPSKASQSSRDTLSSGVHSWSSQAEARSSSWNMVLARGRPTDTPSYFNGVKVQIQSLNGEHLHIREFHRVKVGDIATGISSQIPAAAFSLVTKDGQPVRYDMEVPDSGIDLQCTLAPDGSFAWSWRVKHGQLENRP

IC50 [1] [nM] | IC50 [2] [nM] | Structure (SMILES)
7.8 | 240 | CNc1ncnc2ccc(-c3cccc(C#C[C@]4(O)CCN(C)C4=O)c3)nc12 [Example 27, (R)-3-Hydroxy-1-methyl-3-((3-(4-(methylamino)pyrido[3,2-d]pyrimidin-6-yl)phenyl)ethynyl)pyrrolidin-2-one]
6.8 | 400 | CN1CC[C@@](O)(C#Cc2cccc(-c3ncc4c(CN5CCCC5)cnc(N)c4n3)c2)C1=O [Example 133, (R)-3-[2-[3-[8-Amino-5-(pyrrolidin-1-ylmethyl)pyrido[3,4-d]pyrimidin-2-yl]phenyl]ethynyl]-3-hydroxy-1-methyl-pyrrolidin-2-one]
1.2 | 39 | CN1CC[C@@](O)(C#Cc2cccc(-c3cc(N4CC(F)(F)C4)c4ncnc(N)c4n3)c2)C1=O [Example 300, (R)-3-[2-[3-[4-Amino-8-(3,3-difluoroazetidin-1-yl)pyrido[3,2-d]pyrimidin-6-yl]phenyl]ethynyl]-3-hydroxy-1-methyl-pyrrolidin-2-one]
4.4 | 250 | [2H]c1nc(N)c2nc(-c3cccc(C#CC4(O)CCN(CC=C)C4=O)c3)ccc2n1 (racemic) [Example 196, racemic-1-Allyl-3-((3-(4-aminopyrido[3,2-d]pyrimidin-6-yl-2-d)phenyl)ethynyl)-3-hydroxypyrrolidin-2-one]
840 | > 5000 | Cc1nnc([C@](C)(O)C#Cc2ccc(C)c(-c3ccc4ccnc(N)c4c3)c2)o1 [Example 78, (R)-4-[3-(1-Amino-7-isoquinolyl)-4-methyl-phenyl]-2-(5-methyl-1,3,4-oxadiazol-2-yl)but-3-yn-2-ol]
59 | 1960 | CC(C)c1ncnc2ccc(-c3cccc(C#C[C@]4(O)CCN(C)C4=O)c3)nc12 [Example 272, (R)-3-Hydroxy-3-((3-(4-isopropylpyrido[3,2-d]pyrimidin-6-yl)phenyl)ethynyl)-1-methylpyrrolidin-2-one]
1.7 | 12 | Cc1nc(N)c2nc(-c3cccc(C#C[C@]4(O)CCN(C)C4=O)c3)cc(C)c2n1 [Example 285, (R)-3-((3-(4-Amino-2,8-dimethylpyrido[3,2-d]pyrimidin-6-yl)phenyl)ethynyl)-3-hydroxy-1-methylpyrrolidin-2-one]
2.7 | 27 | Cc1nc(N)c2nc(-c3cccc(C#C[C@@]4(O)C(=O)N(C)[C@@H]5C[C@@H]54)c3)ccc2n1 [Example 273, (1R,4R,5S)-4-((3-(4-Amino-2-methylpyrido[3,2-d]pyrimidin-6-yl)phenyl)ethynyl)-4-hydroxy-2-methyl-2-azabicyclo[3.1.0]hexan-3-one]
0.8 | 46 | Cc1nnc([C@](C)(O)C#Cc2cccc(-c3ccc4ncnc(N)c4n3)c2)o1 [Example 97, (R)-4-(3-(4-Aminopyrido[3,2-d]pyrimidin-6-yl)phenyl)-2-(5-methyl-1,3,4-oxadiazol-2-yl)but-3-yn-2-ol]
20 | 400 | CN(C)Cc1cnc(N)c2nc(-c3cccc(C#C[C@]4(O)CCN(C)C4=O)c3)ccc12 [Example 172, (R)-3-[2-[3-[8-Amino-5-(dimethylaminomethyl)-1,7-naphthyridin-2-yl]phenyl]ethynyl]-3-hydroxy-1-methyl-pyrrolidin-2-one]
0.9 | 7.7 | Cc1cc(-c2cccc(C#C[C@@]3(O)C(=O)N(C)[C@@H]4C[C@@H]43)c2)nc2c(N)ncnc12 [Example 281, (1R,4R,5S)-4-((3-(4-Amino-8-methylpyrido[3,2-d]pyrimidin-6-yl)phenyl)ethynyl)-4-hydroxy-2-methyl-2-azabicyclo[3.1.0]hexan-3-one]
1 | 480 | Cc1cc2cnc(-c3cccc(C#C[C@@](C)(O)c4nccs4)c3)nc2c(N)n1 [Example 51, (R)-4-(3-(8-Amino-6-methylpyrido[3,4-d]pyrimidin-2-yl)phenyl)-2-(thiazol-2-yl)but-3-yn-2-ol]
2.4 | 19 | [2H]c1nc(N)c2nc(-c3cc(C#C[C@]4(O)CCN(C)C4=O)ccc3OC)ccc2n1 [Example 160, (R)-3-((3-(4-Aminopyrido[3,2-d]pyrimidin-6-yl-2-d)-4-methoxyphenyl)ethynyl)-3-hydroxy-1-methylpyrrolidin-2-one]
11 | 350 | [2H]C([2H])([2H])N1CCC(O)(C#Cc2cccc(-c3ncc4ccnc(N)c4n3)c2)C1=O (stereo in doubt) [Example 67, (S)-3-[2-[3-(8-Aminopyrido[3,4-d]pyrimidin-2-yl)phenyl]ethynyl]-3-hydroxy-1-(trideuteriomethyl)pyrrolidin-2-one]
0.9 | 50 | CN1CC[C@@](O)(C#Cc2cccc(-c3cnc4ncnc(N)c4n3)c2)C1=O [Example 15, (R)-3-[2-[3-(4-Aminopteridin-6-yl)phenyl]ethynyl]-3-hydroxy-1-methyl-pyrrolidin-2-one]
≤ 0.5 | 14 | CN1CC[C@@](O)(C#Cc2cccc(-c3ncc4c(-c5ccc(C(F)(F)F)nc5)cnc(N)c4n3)c2)C1=O [Example 147, (R)-3-[2-[3-[8-Amino-5-[6-(trifluoromethyl)-3-pyridyl]pyrido[3,4-d]pyrimidin-2-yl]phenyl]ethynyl]-3-hydroxy-1-methyl-pyrrolidin-2-one]
≤ 0.5 | 17 | Nc1nccc2ccc(-c3cccc(C#CC4(O)CCn5ccnc54)c3)nc12 (stereo in doubt) [Example 91, (R)-7-[2-[3-(8-Amino-1,7-naphthyridin-2-yl)phenyl]ethynyl]-5,6-dihydropyrrolo[1,2-a]imidazol-7-ol]
2.3 | 66 | Cc1cc(C#C[C@]2(O)CCN(C)C2=O)cc(-c2ncc3c(C)cnc(N)c3n2)c1 [Example 76, (R)-3-[2-[3-(8-Amino-5-methyl-pyrido[3,4-d]pyrimidin-2-yl)-5-methyl-phenyl]ethynyl]-3-hydroxy-1-methyl-pyrrolidin-2-one]
4.1 | 45 | [2H]c1nc(N)c2nc(-c3cc(C#C[C@]4(O)CCN(C)C4=O)ccc3OC(F)(F)F)ccc2n1 [Example 29, (R)-3-((3-(4-aminopyrido[3,2-d]pyrimidin-6-yl-2-d)-4-(trifluoromethoxy)phenyl)ethynyl)-3-hydroxy-1-methylpyrrolidin-2-one]
60 | 1190 | CN1CC[C@@](O)(C#Cc2cccc(-c3ncc4cc[nH]c(=O)c4n3)c2)C1=O [Example 30, (R)-2-[3-[2-(3-Hydroxy-1-methyl-2-oxo-pyrrolidin-3-yl)ethynyl]phenyl]-7H-pyrido[3,4-d]pyrimidin-8-one]
0.8 | 45 | CCc1nc(N)c2nc(-c3cccc(C#C[C@]4(O)CCN(C)C4=O)c3)ccc2n1 [Example 210, (R)-3-((3-(4-Amino-2-ethylpyrido[3,2-d]pyrimidin-6-yl)phenyl)ethynyl)-3-hydroxy-1-methylpyrrolidin-2-one]
1 | 23 | Cc1ccc(C#C[C@]2(O)CCN(C)C2=O)cc1-c1ncc2ncnc(N)c2n1 [Example 188, (R)-3-((3-(8-Aminopyrimido[5,4-d]pyrimidin-2-yl)-4-methylphenyl)ethynyl)-3-hydroxy-1-methylpyrrolidin-2-one]
26 | 1000 | CN1CC[C@@](O)(C#Cc2cccc(-c3ccc4ncnc(C5CC5)c4n3)c2)C1=O [Example 270, (R)-3-((3-(4-Cyclopropylpyrido[3,2-d]pyrimidin-6-yl)phenyl)ethynyl)-3-hydroxy-1-methylpyrrolidin-2-one]
385 | 2820 | Cc1nc(N)c2nc(-c3cccc(C#C[C@@]4(O)C[C@@H](C)N(C)C4=O)c3)ccc2n1 [Example 267, (3S,5R)-3-((3-(4-Amino-2-methylpyrido[3,2-d]pyrimidin-6-yl)phenyl)ethynyl)-3-hydroxy-1,5-dimethylpyrrolidin-2-one]
10 | 280 | CC(C)Cc1ccc(C#C[C@]2(O)CCN(C)C2=O)cc1-c1ncc2ccnc(N)c2n1 [Example 54, (R)-3-((3-(8-Aminopyrido[3,4-d]pyrimidin-2-yl)-4-isobutylphenyl)ethynyl)-3-hydroxy-1-methylpyrrolidin-2-one]
57 | 1370 | CN1CC[C@@](O)(C#Cc2cccc(-c3ccc4ncnc(NC5CCC5)c4n3)c2)C1=O [Example 236, (R)-3-((3-(4-(Cyclobutylamino)pyrido[3,2-d]pyrimidin-6-yl)phenyl)ethynyl)-3-hydroxy-1-methylpyrrolidin-2-one]
250 | > 5000 | CN1CC[C@@](O)(C#Cc2cccc(N3CCCc4ncnc(N)c4C3)c2)C1=O [Example 224, (R)-3-((3-(4-Amino-5,7,8,9-tetrahydro-6H-pyrimido[5,4-c]azepin-6-yl)phenyl)ethynyl)-3-hydroxy-1-methylpyrrolidin-2-one]
0.8 | 28 | Cc1cc([C@](C)(O)C#Cc2cccc(-c3ccc4ncnc(N)c4n3)c2)no1 [Example 95, (R)-4-(3-(4-Aminopyrido[3,2-d]pyrimidin-6-yl)phenyl)-2-(5-methylisoxazol-3-yl)but-3-yn-2-ol]
≤ 0.5 | 120 | COc1cc(-c2cccc(C#C[C@]3(O)CCN(C)C3=O)c2)cc2c(N)ncnc12 [Example 114, (R)-3-((3-(4-Amino-8-methoxyquinazolin-6-yl)phenyl)ethynyl)-3-hydroxy-1-methylpyrrolidin-2-one]
